17 compounds from ChEMBL document CHEMBL1131370, “Identification of potent inhibitors of Plasmodium falciparum plasmepsin II from an encoded statine combinatorial library” (Bioorg Med Chem Lett, 1998) can be followed below.

One test addresses Cathepsin D (Homo sapiens, UniProt P07339). The test can be described thus: Inhibitory activity against cathepsin D.
The target in test [1] is T1, Plasmepsin II (Plasmodium falciparum, UniProt P46925). The test can be described thus: In vitro inhibition of plasmepsin-2 from Plasmodium falciparum.
The test system of a further test is Plasmodium falciparum. The test can be described thus: Inhibitory activity against Plasmodium falciparum. In kind it is functional, organism-based.
Test [2] has as its target T1, Plasmepsin II. The test can be described thus: Inhibitory activity against plasmepsin-2 from Plasmodium falciparum.

Each structure is given as a SMILES string.

T1 sequence (P46925 whole entry): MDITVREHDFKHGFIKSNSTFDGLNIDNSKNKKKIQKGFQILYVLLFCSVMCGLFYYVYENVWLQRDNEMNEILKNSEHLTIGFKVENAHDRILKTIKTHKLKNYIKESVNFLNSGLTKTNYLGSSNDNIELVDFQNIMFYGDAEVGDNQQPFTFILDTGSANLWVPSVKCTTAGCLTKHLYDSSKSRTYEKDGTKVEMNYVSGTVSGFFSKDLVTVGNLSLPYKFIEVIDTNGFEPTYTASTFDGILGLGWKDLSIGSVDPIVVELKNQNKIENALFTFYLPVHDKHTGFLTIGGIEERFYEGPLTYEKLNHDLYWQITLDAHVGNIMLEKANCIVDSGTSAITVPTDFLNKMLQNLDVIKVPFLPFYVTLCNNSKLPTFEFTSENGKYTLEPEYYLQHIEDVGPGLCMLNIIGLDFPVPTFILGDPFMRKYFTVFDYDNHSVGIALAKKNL
Cathepsin D, sequence (P07339 65-162 limits assumed): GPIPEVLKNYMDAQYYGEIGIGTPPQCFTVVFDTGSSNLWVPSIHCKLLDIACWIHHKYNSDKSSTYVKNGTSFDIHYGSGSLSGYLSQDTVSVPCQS
Cathepsin D, sequence (P07339 169-412 limits assumed): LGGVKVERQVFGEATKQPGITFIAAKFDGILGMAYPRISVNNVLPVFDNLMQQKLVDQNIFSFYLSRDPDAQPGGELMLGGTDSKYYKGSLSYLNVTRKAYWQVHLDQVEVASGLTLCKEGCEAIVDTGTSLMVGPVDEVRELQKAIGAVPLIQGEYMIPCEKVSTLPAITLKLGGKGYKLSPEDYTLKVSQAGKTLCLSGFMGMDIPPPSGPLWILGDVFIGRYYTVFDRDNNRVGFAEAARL

On to `CCCCNC(=O)CC(O)C(Cc1ccccc1)NC(=O)[C@@H](NC(=O)c1ccc(OC)cc1OC)[C@@H](C)CC` (some centres not stated), for which the Ki – broadly, the equilibrium dissociation constant of an inhibitor or competing ligand from its target – was 2400 nM on Cathepsin D and 220 nM at Plasmepsin II [1].
Taken in the same sequence, the figures for `CCCCNC(=O)CC(O)C(Cc1ccccc1)NC(=O)[C@H](NC(=O)COc1ccc2ccccc2c1)c1ccccc1` (some centres not stated) were 700 nM and 15000 nM.
On the same counts, the results for `CCCCNC(=O)CC(O)C(Cc1ccccc1)NC(=O)[C@@H](NC(=O)c1ccc(OC)cc1OC)c1ccccc1` (stereo in doubt; form 1) are 2100 nM and 590 nM.
With `CCCCNC(=O)CC(O)C(Cc1ccccc1)NC(=O)[C@@H](NC(=O)c1ccc(OC)cc1OC)c1ccccc1` (stereo in doubt; form 2), the Ki at Cathepsin D is 6200 nM; on Plasmepsin II [1], over 30000 nM.
On to `CCCCNC(=O)CC(O)C(Cc1ccccc1)NC(=O)[C@@H](NC(=O)c1ccc(CN2CCCC2)cc1)[C@@H](C)CC` (some centres not stated), for which the IC50 – broadly, the concentration at which inhibition is half-maximal – with Plasmodium falciparum was about 10000 nM; on Cathepsin D, 1200 nM. The compound further returned a Ki at Plasmepsin II [1] of 220 nM.
On the same counts, the results for `CCCCNC(=O)CC(O)C(Cc1ccccc1)NC(=O)[C@@H](NC(=O)COc1ccc2ccccc2c1)[C@@H](C)CC` (some centres not stated) are about 10000 nM, 500 nM and 110 nM.
Consider `CCCCNC(=O)CC(O)C(CC(C)C)NC(=O)[C@H](Cc1ccccc1)NC(=O)COc1ccc2ccccc2c1` (some centres not stated), for which the Ki on Cathepsin D was 1300 nM; at Plasmepsin II [1], 12000 nM.
On to `CCCCNC(=O)CC(O)C(Cc1ccccc1)NC(=O)[C@H](CCC(N)=O)NC(=O)COc1ccc2ccccc2c1` (some centres not stated), for which the results for the Ki on Cathepsin D and at Plasmepsin II [1] were 200 nM and over 30000 nM, respectively.
On the same counts, the results for `CCCCNC(=O)CC(O)C(CC(C)C)NC(=O)[C@@H](NC(=O)COc1ccc2ccccc2c1)c1ccccc1` (some centres not stated) are 110 nM and 5800 nM.
On the same counts, the results for `CCCCNC(=O)CC(O)C(Cc1ccccc1)NC(=O)[C@@H](NC(=O)c1ccc(OC)cc1OC)C(C)C` (some centres not stated) are 1600 nM and 500 nM.
As to `CCCCNC(=O)CC(O)C(Cc1ccccc1)NC(=O)[C@@H](NC(=O)Cc1ccc2ccccc2c1)[C@@H](C)CC` (some centres not stated), the Ki amounted to 50 nM on Cathepsin D and 90 nM on Plasmepsin II [1].
In the case of `CCC(C)C(NC(=O)c1ccc(CNC)cc1)C(=O)NC(CC(C)C)C(O)CC(=O)NCCCc1ccccc1` (configuration not stated), the Ki at Cathepsin D was 1300 nM; at Plasmepsin II [1], 440 nM.
On to `CCCCNC(=O)CC(O)C(Cc1ccccc1)NC(=O)[C@@H](NC(=O)CN1CCC(C(N)=O)(c2ccccc2)CC1)[C@@H](C)CC` (some centres not stated), for which the values for the IC50 with Plasmodium falciparum and on Cathepsin D were about 20000 nM and 5500 nM, respectively. The compound further came in with a Ki on Plasmepsin II [1] of 410 nM.
With `CCCCNC(=O)CC(O)C(Cc1ccccc1)NC(=O)[C@@H](NC(=O)COc1ccc2ccccc2c1)c1ccccc1` (some centres not stated), the Ki on Cathepsin D was determined as 200 nM; on Plasmepsin II [1] it was 560 nM.
On the same counts, the results for `CCCCNC(=O)CC(O)C(CC(C)C)NC(=O)[C@H](CC(C)C)NC(=O)COc1ccc2ccccc2c1` (some centres not stated) are 920 nM and 5600 nM.
As to `CCCCNC(=O)CC(O)C(CC(C)C)NC(=O)[C@@H](NC(=O)Cc1ccc2ccccc2c1)[C@@H](C)CC` (some centres not stated), the figures for the Ki at Cathepsin D and on Plasmepsin II [2] were 320 nM and 50 nM, respectively.
On to `CC[C@H](C)[C@H](NC(=O)CN1CCC(C(N)=O)(c2ccccc2)CC1)C(=O)NC(Cc1ccccc1)C(O)CC(=O)NCCCc1ccccc1` (some centres not stated), for which the Ki on Cathepsin D worked out at 3900 nM; on Plasmepsin II [1], 600 nM.
